Laboratory results taken from ChEMBL document CHEMBL1129160, “Non thiazolidinedione antihyperglycaemic agents. 2: -Carbon substituted -phenylpropanoic acids1” (Bioorg Med Chem Lett, 1996).
pKi: −log10 of the molar value.

Each compound was assayed against T1, Peroxisome proliferator-activated receptor gamma (Homo sapiens, UniProt P37231) (assay: Inhibition of [125I]SB 236636 binding to human PPAR gamma receptor).
T1 sequence (P37231 whole entry): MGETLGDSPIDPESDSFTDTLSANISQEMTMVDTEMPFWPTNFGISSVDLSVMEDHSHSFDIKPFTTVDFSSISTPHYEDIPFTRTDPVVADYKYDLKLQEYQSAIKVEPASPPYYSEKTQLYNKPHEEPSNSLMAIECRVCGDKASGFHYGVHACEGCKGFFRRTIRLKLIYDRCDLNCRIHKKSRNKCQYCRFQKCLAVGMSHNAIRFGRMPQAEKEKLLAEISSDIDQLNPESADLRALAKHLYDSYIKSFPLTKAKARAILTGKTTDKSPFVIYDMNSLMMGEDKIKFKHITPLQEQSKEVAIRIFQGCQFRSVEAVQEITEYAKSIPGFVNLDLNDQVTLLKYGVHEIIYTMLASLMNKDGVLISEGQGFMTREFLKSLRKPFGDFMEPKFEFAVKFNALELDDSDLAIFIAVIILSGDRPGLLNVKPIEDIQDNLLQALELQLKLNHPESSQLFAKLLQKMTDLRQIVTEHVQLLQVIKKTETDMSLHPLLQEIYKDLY

CC(Cc1ccc(OCCN(C)c2nc3ccccc3o2)cc1)C(=O)O (centres undefined) was tested, and the pKi was 5.82.

Each compound was assayed on Mus musculus (assay: In vivo anti-hyperglycaemic activity in mice.).
Type: functional

First: CN(CCOc1ccc(CC(CCCCCc2ccccc2)C(=O)O)cc1)c1nc2ccccc2o1 (centres undefined)
Second: CN(CCOc1ccc(CC(CCCCc2ccccc2)C(=O)O)cc1)c1nc2ccccc2o1 (centres undefined)
The ED25 of the first is lower: 3 µM/kg for the first, 100 µM/kg for the second.

COCC(Cc1ccc(OCCN(C)c2nc3ccccc3o2)cc1)C(=O)O (centres undefined) and CCC(Cc1ccc(OCCN(C)c2nc3ccccc3o2)cc1)C(=O)O (centres undefined) are the same in ED25: 30 µM/kg for the first, 30 µM/kg for the second.

Going from COC(=O)C(CCc1ccccc1)Cc1ccc(OCCN(C)c2nc3ccccc3o2)cc1 (centres undefined) to COC(=O)C(Cc1ccccc1)Cc1ccc(OCCN(C)c2nc3ccccc3o2)cc1 (centres undefined), the ED25 rises from 100 µM/kg to 300 µM/kg.

CCCC(Cc1ccc(OCCN(C)c2nc3ccccc3o2)cc1)C(=O)O (centres undefined) and CCCCCCC(Cc1ccc(OCCN(C)c2nc3ccccc3o2)cc1)C(=O)O (centres undefined) are the same in ED25: 10 µM/kg for the first, 10 µM/kg for the second.

First: CN(CCOc1ccc(CC(CCOc2ccccc2)C(=O)O)cc1)c1nc2ccccc2o1 (centres undefined)
Second: CN(CCOc1ccc(CC(CCCc2ccccc2)C(=O)O)cc1)c1nc2ccccc2o1 (centres undefined)
The ED25 of the first is higher: 30 µM/kg for the first, 3 µM/kg for the second.

Going from Cc1c(C)c2c(c(C)c1O)CCC(C)(COc1ccc(CC3SC(=O)NC3=O)cc1)O2 (centres undefined) [TROGLITAZONE] to CN(CCOc1ccc(CC2SC(=O)NC2=O)cc1)c1nc2ccccc2o1 (centres undefined) [BRL-48482], the ED25 falls from 400 µM/kg to 3 µM/kg.

Compared with C=CCC(Cc1ccc(OCCN(C)c2nc3ccccc3o2)cc1)C(=O)O (centres undefined), CC(Cc1ccc(OCCN(C)c2nc3ccccc3o2)cc1)C(=O)O (centres undefined) is higher in ED25: 30 µM/kg for the first, 1000 µM/kg for the second.

Going from CCOC(Cc1ccc(OCCN(C)c2nc3ccccc3o2)cc1)C(=O)O (centres undefined) to CN(CCOc1ccc(CC(C#N)C(=O)O)cc1)c1nc2ccccc2o1 (centres undefined), the ED25 rises from 0.1 µM/kg to 10 µM/kg.

Compared with COC(=O)C(Cc1ccc(OCCN(C)c2nc3ccccc3o2)cc1)C(C)=O (centres undefined), COC(=O)C(Cc1ccc(OCCN(C)c2nc3ccccc3o2)cc1)C(=O)OC is lower in ED25: 300 µM/kg for the first, 10 µM/kg for the second.

CN(CCOc1ccc(CC(C(=O)O)c2ccccc2)cc1)c1nc2ccccc2o1 (centres undefined) and CN(CCOc1ccc(CC(C/C=C/c2ccccc2)C(=O)O)cc1)c1nc2ccccc2o1 (centres undefined) are the same in ED25: 30 µM/kg for the first, 30 µM/kg for the second.

CC(C)CCC(Cc1ccc(OCCN(C)c2nc3ccccc3o2)cc1)C(=O)O (centres undefined) showed an ED25 of 100 µM/kg.

Compound CCOC(=O)C(Cc1ccc(OCCN(C)c2nc3ccccc3o2)cc1)C(=O)c1ccccc1 (centres undefined) has an ED25 of over 1000 µM/kg.

Each compound was assayed against T1, Peroxisome proliferator-activated receptor gamma.

Work on CN(CCOc1ccc(CC(CCCc2ccccc2)C(=O)O)cc1)c1nc2ccccc2o1 (centres undefined) yielded a pKi of 7.52.
